In patent US11713318B2, “Short conjugated oligoelectrolytes and uses thereof” (The Regents Of The University Of California, priority 2018, dated 2023):
Where two headings read alike, the source gives them in different places.

Legend:
[1] = system: Hep G2 (ATCC HB-8065) cells; assay: Cytotoxicity, MTT assay; assay type: cell-based; conditions: Homo sapiens, HepG2, 24 h
Description: (§1) Before removing the frozen cell stocks from liquid nitrogen, culture medium was pre-warmed to 37° C. The frozen tube was then removed from liquid nitrogen and placed into a 37° C. water bath and shaken gently to thaw the cell stock as quickly as possible. A small portion of the pre-warmed culture medium was added to the cell solution. The cell suspension was then centrifuged at 1000 r/min for 3 minutes. The supernatant was discarded and the cells were resuspended in fresh culture medium.
(§2) NIH 3T3 (ATCC CRL-1658) and Hep G2 (ATCC HB-8065) cells were cultured with DMEM+10% FBS in 100 mm dishes. Cells were lifted for subculture or testing when confluence reached ˜60% by treating with 1× trypsin (incubated for 3 min at 37° C.). J774 (ATCC TIB-67) cells were cultured with DMEM+10% FBS in 100 mm dishes. Cells were lifted for subculture or testing when confluence reached ˜80% using a cell scraper. RAW264.7 (ATCC TIB-71) cells were cultured with DMEM+10% heat-inactivated FBS+1% pen/strep in T75 flasks. Cells were lifted for subculture or testing when confluence reached ˜80% using a cell scraper.
(§3) • 1. Cells were lifted and resuspended in culture medium. The number of cells in the cell suspension was determined using an auto-cell counter: 10 μL of the cell suspension was mixed with 10 μL 1× trypan blue (filtered with 0.2 μm PES filter) and the mixture was loaded onto a cell counting slide. Based on the concentration of viable cells, the cell suspension was further diluted to achieve the desired density. • 2. Cells were seeded in 96 well plates by adding 100 μL final cell suspension column-by-column using a multichannel pipette (5000 cells/well for NIH 3T3, 10000 cells/well for Hep G2, J774 and RAW264.7). The outer wells were block with PBS to reduce the effects of evaporation. One column was filled with only culture medium as a blank. Cells were incubated overnight before adding the test articles. • 3. Test articles were dissolved in 1×PBS (or DMSO) to obtain stocks solution. Stock solutions were pre-warmed before use. […] Serial dilutions (2-fold) of the 10× solutions were made in sterile culture tubes by diluting in 1×PBS (8 dilutions to yield 9 test concentrations). 900 μL of culture media was added to each tube to obtain final drug solution containing 10% PBS (or less than 1% DMSO) for each experimental group. • 4. The original culture medium was gently removed from the 96-well plates using a pipette. 100 μL of the test article solutions prepared in Step 3 were added to rows 2-7 of each column to obtain six replicates for each concentration. Plates were then incubated for 24 hours. • 5. MTT solutions were prepared by dissolving commercial MTT powder in 1×PBS to a concentration of 5 mg/mL. After passing through a 0.22 μm PES filter, the MTT solution was divided into 1 mL portions in sterile centrifuge tubes and stored at −20° C. • 6. MTT stock solutions were removed from the freezer to thaw at room temperature. Before adding MTT solutions, cell cultures were visually inspected and imaged using a microscope (to use as a comparison with MTT results). 10 μL of the 5 mg/mL MTT solution was added to each well and the plate was incubated for 4 hours. • 7. After 4 h incubation, the culture medium/MT solution was removed gently using a pipette. 100 μL of DMSO was added to each well using a multichannel pipette. The 96-well plates were analyzed in a plate reader using the following method: shake for 5 minutes, wait for 30 seconds, and measure absorbance at 570 nm. • 8. Data processing: The average of background Abg was calculated from the blank column. All other data was first treated by subtracting Abg. The average A. and standard deviation Se of each experimental group and the average Ac and standard deviation Sc for control group (with pure culture medium incubation) were then calculated. The cell viability was determined as Ae/Ac×100% and corresponding error as Se/Ae×100%. Significant outliers in any experimental or control group were removed. […]

Cytotoxicity, MTT assay = assay type: cell-based; conditions: human, Hep G2, at the concentration given as IC50 bound, read-out: cell viability at the highest or lowest test concentration
Description: as §1, §2, §3

[2] = system: S. epidermidis (ATCC 14990); assay: MIC broth microdilution method, Table 3; conditions: Staphylococcus epidermidis, ATCC14990
E. coli K12 (ATCC 47076) = assay: MIC broth microdilution method, Table 3; conditions: Escherichia coli, ATCC47076
[3] = system: NIH 3T3 (ATCC CRL-1658) cells; assay: Cytotoxicity, MTT assay; assay type: cell-based; conditions: Mus musculus, NIH3T3; NIH 3T3; MTT, 24 hours incubation; read-out: IC50
Description: as §1, §2, §3

[4] = Hep G2, MTT, 24 hours incubation, read-out: IC50

Compound | MIC (E. coli K12 (ATCC 47076)) | IC50 [1, 4] | viability at 24 h (Cytotoxicity, MTT assay; Hep G2 (ATCC HB-8065) cells) | also measured
C[N+](C)(C)CCCCCCOc1cc(/C=C/c2cc(OCCCCCC[N+](C)(C)C)cc(OCCCCCC[N+](C)(C)C)c2)cc(OCCCCCC[N+](C)(C)C)c1 [Formula A] |  |  |  | IC50 [1]: > 128 µg/mL; viability at 24 h (Cytotoxicity, MTT assay): 68%
C[N+](C)(C)CCCCCCCCOc1cc(/C=C/c2cc(OCCCCCCCC[N+](C)(C)C)cc(OCCCCCCC[N+](C)(C)C)c2)cc(OCCCCCCC[N+](C)(C)C)c1.[I-].[I-].[I-].[I-] [Formula B] |  |  |  | IC50 [1]: 9.9 µg/mL
C(=C\c1cc(OCCCCCC[n+]2ccccc2)cc(OCCCCCC[n+]2ccccc2)c1)/c1cc(OCCCCCC[n+]2ccccc2)cc(OCCCCCC[n+]2ccccc2)c1.[I-].[I-].[I-].[I-] [Formula C] |  |  |  | IC50 [1]: 29.7 µg/mL
C[N+]12CC[N+](CCCOc3cc(/C=C/c4ccc(/C=C/c5cc(OCCC[N+]67CC[N+](C)(CC6)CC7)cc(OCCC[N+]67CC[N+](C)(CC6)CC7)c5)cc4)cc(OCCC[N+]45CC[N+](C)(CC4)CC5)c3)(CC1)CC2 [Formula DD] | 64 µg/mL | > 128 µg/mL | 85% | MIC [2]: 16 µg/mL
CCCC[N+](C)(CCCCOc1cc(/C=C/c2ccc(/C=C/c3cc(OCCCC[N+](C)(CCCC)CCOCCOC)cc(OCCCC[N+](C)(CCCC)CCOCCOC)c3)cc2)cc(OCCCC[N+](C)(CCCC)CCOCCOC)c1)CCOCCOC (stereo not shown) [Formula GG] | 32 µg/mL |  |  | IC50 [3]: 77.8 µg/mL
CCCCCC[N+](C)(C)CCOc1cc(/C=C/c2ccc(/C=C/c3cc(OCC[N+](C)(C)CCCCCC)cc(OCC[N+](C)(C)CCCCCC)c3)cc2)cc(OCC[N+](C)(C)CCCCCC)c1.[I-].[I-].[I-].[I-] [Formula H] | 4 µg/mL | 13 µg/mL |  | 
CCCCCC[N+](C)(CCCCOc1cc(/C=C/c2ccc(/C=C/c3cc(OCCCC[N+](C)(CCCCCC)CCOCCOCCOC)cc(OCCCC[N+](C)(CCCCCC)CCOCCOCCOC)c3)cc2)cc(OCCCC[N+](C)(CCCCCC)CCOCCOCCOC)c1)CCOCCOCCOC (stereo not shown) [Formula KK] | 16 µg/mL |  |  | 
C[N+](C)(CCCOc1cc(/C=C/c2ccc(/C=C/c3cc(OCCC[N+](C)(C)CC(O)CO)cc(OCCC[N+](C)(C)CC(O)CO)c3)cc2)cc(OCCC[N+](C)(C)CC(O)CO)c1)CC(O)CO (stereo not shown) [Formula OO] | > 128 µg/mL | > 1020 µg/mL | 61% | MIC [2]: > 64 µg/mL
C[N+](C)(CCCN)CCCOc1cc(/C=C/c2ccc(/C=C/c3cc(OCCC[N+](C)(C)CCCN)cc(OCCC[N+](C)(C)CCCN)c3)cc2)cc(OCCC[N+](C)(C)CCCN)c1 [Formula PP] | 32 µg/mL |  |  | MIC [2]: 16 µg/mL
C[N+](C)(C)CCCCCCN(CCCCCC[N+](C)(C)C)c1ccc(/C=C/c2ccc(/C=C/c3ccc(N(CCCCCC[N+](C)(C)C)CCCCCC[N+](C)(C)C)cc3)cc2)cc1 [Formula UU] |  | 43.7 µg/mL |  | 
C[N+](C)(C)CCCCCCN(CCCCCC[N+](C)(C)C)c1ccc(/C=C/c2ccc(/C=C/c3ccc(/C=C/c4ccc(N(CCCCCC[N+](C)(C)C)CCCCCC[N+](C)(C)C)cc4)cc3)cc2)cc1 [Formula VV] |  | > 128 µg/mL | 64% | 
CC(C)CCC[N+](C)(C)CCCCOc1cc(/C=C/c2ccc(/C=C/c3cc(OCCCC[N+](C)(C)CCCC(C)C)cc(OCCCC[N+](C)(C)CCCC(C)C)c3)cc2)cc(OCCCC[N+](C)(C)CCCC(C)C)c1.[I-].[I-].[I-].[I-] [Formula V] | 4 µg/mL |  |  | 
C[N+](C)(C)CCCOc1cc(/C=C/c2ccc(/C=C/c3cc(OCCC[N+](C)(C)C)cc(OCCC[N+](C)(C)C)c3)cc2)cc(OCCC[N+](C)(C)C)c1 [Formula X] | 64 µg/mL | > 1020 µg/mL | 73% | 
CC[N+](C)(C)CCCOc1cc(/C=C/c2ccc(/C=C/c3cc(OCCC[N+](C)(C)CC)cc(OCCC[N+](C)(C)CC)c3)cc2)cc(OCCC[N+](C)(C)CC)c1 [Formula Y] | 32 µg/mL | > 1020 µg/mL | 61% | 
C[C@@H](O)[C@H]1C(=O)N2C(C(=O)O)=C(S[C@@H]3CN[C@H](C(=O)N(C)C)C3)[C@H](C)[C@H]12 [Meropenem, reference compound] |  | > 128 µg/mL | 96% | 
